Assay results reported in article PMC8472793 (Microorganisms, 2021).

Key:
[1] = target: T1, Pro1 (γ-glutamyl kinase, GK) (Saccharomyces cerevisiae, UniProt P32264); assay: PK/LDH-coupled ADP production, NADH oxidation at […] nm; type: biochemical; details: 10 mM MgCl2, 100 mM HEPES-NaOH pH 7.4, 30 °C, no proline
T1 sequence (P32264 1-428): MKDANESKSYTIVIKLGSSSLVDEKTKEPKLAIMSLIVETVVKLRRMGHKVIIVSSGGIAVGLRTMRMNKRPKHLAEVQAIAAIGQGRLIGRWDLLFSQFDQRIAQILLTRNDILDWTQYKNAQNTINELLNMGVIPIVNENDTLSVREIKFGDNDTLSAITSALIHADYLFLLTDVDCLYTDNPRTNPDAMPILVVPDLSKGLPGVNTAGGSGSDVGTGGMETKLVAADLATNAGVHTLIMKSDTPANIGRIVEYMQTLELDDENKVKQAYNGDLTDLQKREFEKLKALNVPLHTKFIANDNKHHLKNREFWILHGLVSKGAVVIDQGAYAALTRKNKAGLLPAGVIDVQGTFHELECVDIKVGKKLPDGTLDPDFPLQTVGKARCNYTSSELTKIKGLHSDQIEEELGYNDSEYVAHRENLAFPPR

[2] = target: Pro1 (γ-glutamyl kinase, GK) (Saccharomyces cerevisiae, UniProt P32264, Q79H); assay: biochemical; details: read-out: relative activity at 500 mM proline
Sequence of Pro1 (γ-glutamyl kinase, GK) (Saccharomyces cerevisiae, UniProt P32264, Q79H) (P32264 whole entry Q79H): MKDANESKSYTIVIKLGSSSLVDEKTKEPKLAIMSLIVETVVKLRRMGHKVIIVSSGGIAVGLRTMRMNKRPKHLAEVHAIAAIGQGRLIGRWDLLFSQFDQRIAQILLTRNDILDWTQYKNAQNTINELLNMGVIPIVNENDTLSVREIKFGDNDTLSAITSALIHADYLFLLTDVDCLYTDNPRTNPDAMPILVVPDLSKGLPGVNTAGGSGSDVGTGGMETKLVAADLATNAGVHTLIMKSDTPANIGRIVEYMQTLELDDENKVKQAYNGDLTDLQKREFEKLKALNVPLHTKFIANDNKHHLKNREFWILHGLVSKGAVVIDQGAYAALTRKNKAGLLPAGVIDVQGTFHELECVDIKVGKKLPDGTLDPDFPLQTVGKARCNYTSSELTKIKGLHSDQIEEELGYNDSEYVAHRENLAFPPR

[3] = target: Pro1 (γ-glutamyl kinase, GK) (Saccharomyces cerevisiae, UniProt P32264, D143A); assay: biochemical; details: read-out: relative activity at 500 mM proline
Sequence of Pro1 (γ-glutamyl kinase, GK) (Saccharomyces cerevisiae, UniProt P32264, D143A) (P32264 whole entry D143A): as the sequence (P32264 whole entry Q79H) above, with H79Q, D143A counted along it

[4] = target: Pro1 (γ-glutamyl kinase, GK) (Saccharomyces cerevisiae, UniProt P32264, I150T); assay: biochemical; details: read-out: relative activity at 500 mM proline
Sequence of Pro1 (γ-glutamyl kinase, GK) (Saccharomyces cerevisiae, UniProt P32264, I150T) (P32264 whole entry I150T): as the sequence (P32264 whole entry Q79H) above, with H79Q, I150T counted along it

With Nc1ncnc2c1ncn2[C@@H]1O[C@H](COP(=O)(O)OP(=O)(O)OP(=O)(O)O)[C@@H](O)[C@H]1O [ATP] the “PK/LDH-coupled ADP production, NADH oxidation at 340 nm” value ([1]; 400 mM sodium glutamate, ATP 5 mM) was “GK activity was measured by the production of ADP in an enzyme-coupled system”.

In the case of O=C(O)[C@@H]1CCCN1 [proline], the activity at 500000 µM [2] is reported as ~96%, the activity at 500000 µM [3] is reported as ~95% and the activity at 500000 µM [4] is reported as 50%.

N[C@@H](CCC(=O)O)C(=O)O [sodium glutamate] was tested, and the “PK/LDH-coupled ADP production, NADH oxidation at 340 nm” value ([1]; 5 mM ATP, glutamate 400 mM) was “sodium glutamate was added to initiate the enzymatic reaction”.
